Converted amounts (≈) assume the structure as drawn.

As a reminder, the MIC is the lowest concentration found to suppress growth. Higher therefore signals weaker potency.

The test system of this assay is Staphylococcus aureus. Kind of assay: Antibacterial activity against Staphylococcus aureus. Type of assay: functional.
On to `CC(C)C[C@@H](NC(=O)CNC(=O)[C@H](CCCCN)NC(=O)CN)C(=O)N1Cc2ccccc2C[C@H]1C(=O)N1CC2CCCCC2[C@H]1C(=O)NCC(=O)N[C@@H](CCCNC(=N)N)C(=O)N1Cc2ccccc2C[C@H]1C(=O)N1CC2CCCCC2[C@H]1C(=O)NCC(=O)N[C@@H](Cc1ccccc1)C(=O)N1Cc2ccccc2C[C@H]1C(=O)N1CC2CCCCC2[C@H]1C(=O)NCC(=O)N[C@@H](CCCNC(=N)N)C(=O)N1Cc2ccccc2C[C@H]1C(=O)N1CC2CCCCC2[C@H]1C(=O)NCC(=O)N[C@@H](Cc1ccccc1)C(=O)N1Cc2ccccc2C[C@H]1C(=O)N1CC2CCCCC2[C@H]1C(=O)NCC(=O)N[C@@H](CCCNC(=N)N)C(=O)N1Cc2ccccc2C[C@H]1C(=O)N1CC2CCCCC2[C@H]1C(=O)NCC(=O)N[C@@H](CCCCN)C(=O)N[C@@H](CCCNC(=N)N)C(N)=O` (some centres undefined), for which it took 10 µM (≈ 36.2 µg/mL) to inhibit growth (MIC). That is a double-digit micromolar value.

Take `CC(C)C[C@H](NC(=O)CNC(=O)[C@@H]1C2CCCCC2CN1C(=O)[C@@H]1Cc2ccccc2CN1C(=O)[C@H](CC(C)C)NC(=O)CNC(=O)[C@@H]1C2CCCCC2CN1C(=O)[C@@H]1Cc2ccccc2CN1C(=O)[C@H](CCCCN)NC(=O)CNC(=O)[C@@H]1C2CCCCC2CN1C(=O)[C@@H]1Cc2ccccc2CN1C(=O)[C@H](CC(C)C)NC(=O)CNC(=O)[C@@H]1C2CCCCC2CN1C(=O)[C@@H]1Cc2ccccc2CN1C(=O)[C@H](CCCCN)NC(=O)CNC(=O)[C@@H]1C2CCCCC2CN1C(=O)[C@@H]1Cc2ccccc2CN1C(=O)[C@H](CC(C)C)NC(=O)CNC(=O)[C@@H]1C2CCCCC2CN1C(=O)[C@@H]1Cc2ccccc2CN1C(=O)[C@@H](CC(C)C)NC(=O)CNC(=O)[C@H](CCCCN)NC(=O)CN)C(=O)N[C@@H](CCCNC(=N)N)C(N)=O` (some centres undefined): the lowest concentration to inhibit growth (MIC) was 100 µM (≈ 344 µg/mL). This MIC is about 10-fold higher than that of the molecule before.

As to `CC(C)C[C@H](NC(=O)CNC(=O)[C@@H]1C2CCCCC2CN1C(=O)[C@@H]1Cc2ccccc2CN1C(=O)[C@H](CCCCN)NC(=O)CNC(=O)[C@@H]1C2CCCCC2CN1C(=O)[C@@H]1Cc2ccccc2CN1C(=O)[C@H](CC(C)C)NC(=O)CNC(=O)[C@@H]1C2CCCCC2CN1C(=O)[C@@H]1Cc2ccccc2CN1C(=O)[C@H](CCCCN)NC(=O)CNC(=O)[C@@H]1C2CCCCC2CN1C(=O)[C@@H]1Cc2ccccc2CN1C(=O)[C@@H](CC(C)C)NC(=O)CNC(=O)[C@H](CCCCN)NC(=O)CN)C(=O)N1Cc2ccccc2C[C@H]1C(=O)N1CC2CCCCC2[C@H]1C(=O)NCC(=O)N[C@@H](CCCCN)C(=O)N1Cc2ccccc2C[C@H]1C(=O)N1CC2CCCCC2[C@H]1C(=O)NCC(=O)N[C@@H](CCCCN)C(=O)N[C@@H](CCCNC(=N)N)C(N)=O` (some centres undefined), inhibition of growth (MIC) required 10 µM (≈ 34.7 µg/mL).

As to `CC(C)C[C@H](NC(=O)CNC(=O)[C@H](CCCCN)NC(=O)CN)C(=O)N1Cc2ccccc2C[C@H]1C(=O)N1CC2CCCCC2[C@H]1C(=O)N[C@H](Cc1ccccc1)C(=O)N[C@H](CCCCN)C(=O)N1Cc2ccccc2C[C@@H]1C(=O)N1CC2CCCCC2[C@H]1C(=O)N[C@H](CCCCN)C(=O)N[C@H](Cc1ccccc1)C(=O)N1Cc2ccccc2C[C@H]1C(=O)N1CC2CCCCC2[C@@H]1C(=O)N[C@H](Cc1ccccc1)C(=O)N[C@H](CCCCN)C(=O)N1Cc2ccccc2C[C@@H]1C(=O)N1CC2CCCCC2[C@H]1C(=O)N[C@@H](CCCCN)C(=O)N[C@@H](Cc1ccccc1)C(=O)N1Cc2ccccc2C[C@@H]1C(=O)N1CC2CCCCC2[C@H]1C(=O)N[C@H](Cc1ccccc1)C(=O)N[C@H](CCCCN)C(=O)N1Cc2ccccc2C[C@@H]1C(=O)N1CC2CCCCC2[C@@H]1C(=O)N[C@H](Cc1ccccc1)C(=O)N[C@@H](CCCCN)C(=O)N[C@@H](CCCNC(=N)N)C(N)=O` (some centres undefined), the lowest concentration to inhibit growth (MIC) was 30 µM (≈ 121 µg/mL).

(Values after ChEMBL document CHEMBL1138365, “Application of 3D-QSAR for identification of descriptors defining bioactivity of antimicrobial peptides” (2007).)
